Legend:
[1] = test system: Rhipicephalus (Boophilus) microplus; test: In vitro injection test with Rhipicephalus (Boophilus) microplus (BOOPMI Inj); conditions: 168 h, laid fertile eggs after 7 days, read-out: acaricidal activity; for pest or weed control at 0.00016 mg: dose 0.16 μg/animal injected; for pest or weed control at 0.0008 mg: dose 0.8 μg/animal injected
Protocol: In Vitro Injection Test with Rhipicephalus (Boophilus) Microplus (BOOPMI Inj)
To produce an appropriate mixture for injection, the test substance was dissolved and diluted in dimethyl sulphoxide to the desired concentration. 1 μl of the test mixture was injected into the abdomen of each of 5 engorged adult female cattle ticks (Rhipicephalus (Boophilus) microplus). The ticks were transferred into petri dishes and maintained in a climate-controlled room [28° C., 85% rel. hum.].
Acaricidal activity against cattle ticks was assessed after 7 days by assessment of laid fertile eggs. […] An acaricidal activity of 100% means that none of the ticks laid eggs or laid eggs were infertile; 0% means that the ticks laid eggs, and all the eggs were fertile.

Ctenocephalides felis [2] = test: In vitro contact test with fleas; conditions: read-out: insecticidal activity; for pest or weed control at 0.2 µg/cm2, 0.2 µg/cm2: dose 0.2 μg/cm^2, dead or moribund fleas after 48 h; for pest or weed control at 1 µg/cm2, 1 µg/cm2: dose 1 μg/cm^2, dead or moribund fleas after 48 h
Protocol: In Vitro Contact Tests with Fleas
In vitro contact tests with fleas were conducted with adult male and female cat fleas (Ctenocephalides felis).
(§1) To coat the test tubes, the test substance was dissolved and diluted in acetone p.a. to the desired concentration. The solution was then homogeneously applied to the inner wall and base of a glass tube by turning and rocking on an orbital shaker until complete evaporation of the solvent. For example, with a 900 ppm solution of test substance, an area-based dose of 5 μg/cm^2 was achieved.
Upon complete evaporation of the solvent, 5-10 adult cat fleas (Ctenocephalides felis) were added to each coated tube, which was then sealed with a perforated plastic lid and incubated in a horizontal position at room temperature and ambient humidity. After 48 h, insecticidal activity against fleas was determined. For this, fleas were collected to the base of the tube by knocking the tube, and the tube was allowed to stand upright. Fleas which remained motionless at the base or moved in an uncoordinated manner were considered dead or moribund, respectively.
A substance was judged to have good insecticidal activity against Ctenocephalides felis when at least 80% of the fleas were found dead or moribund at a dose of the substance of μg/cm^2. 100% insecticidal activity means that all the fleas were found dead or moribund. 0% insecticidal activity means that no fleas were found dead or moribund.

Ctenocephalides felis [3] = test: Ctenocephalides felis in-vitro feeding test with fleas (CTECFE oral); conditions: 48 hours, read-out: insecticidal feeding activity; for pest or weed control at 0.8 ppm: dose 0.8 ppm in citrated cattle blood; for pest or weed control at 4 ppm: dose 4 ppm in citrated cattle blood; for pest or weed control at 0.16 ppm: dose 0.16 ppm in citrated cattle blood
Protocol: Ctenocephalides felis In-Vitro Feeding Test with Fleas (CTECFE Oral)
To prepare a test blood mixture for feeding fleas, the test substance was dissolved in dimethyl sulphoxide and diluted with citrated cattle blood to the desired concentration.
To assemble the test set-up, about 20 unfed adult male and female cat fleas
(Ctenocephalides felis) were placed in a chamber which was closed at the top and bottom with gauze. A metal cylinder was sealed at one end with parafilm membrane, placed with the sealed base onto the chamber, and filled with the test blood mixture, which could be imbibed by the fleas through the parafilm membrane. The assembled test set-up was maintained at about 37° C. After 48 hours, the insecticidal feeding activity against fleas was determined. 100% means that all of the fleas were killed; 0% means that none of the fleas was killed.

Amblyomma americanum = test: In vitro contact test with hard ticks (Amblyomma americanum nymphs); conditions: read-out: acaricidal activity; for pest or weed control at 1 µg/cm2, 1 µg/cm2: dose 1 μg/cm^2, 48 h
Protocol: (§2) In Vitro Contact Tests with Adult Hard Ticks
(§3) In vitro contact tests with ticks were conducted with adult males and females of Rhipicephalus sanguineus, Ixodes ricinus, or Dermacentor variabilis, or nymphs of Amblyomma americanum.
as §1, with “For the coating of” for “To coat”, “vials,” for “tubes,”, “vial” for “tube”
(§4) After the solvent was completely evaporated, 5-10 adult ticks were put in each coated test vial, which was then sealed with a perforated plastic lid and incubated in a horizontal position in the dark at room temperature and ambient humidity (Rhipicephalus sanguineus) or in a climate-controlled cabinet (Ixodes ricinus, Dermacentor variabilis, Amblyomma americanum [21° C., 85% rel. hum.]). Acaricidal activity against the respective tick species was determined after 48 h. For this, ticks were collected to the base of the test vial by gentle knocking, and test vials were then incubated on a hotplate at 45-50° C. for no longer than 5 min. Ticks which remained motionless on the base of the test vial or moved uncoordinated without deliberately climbing up to avoid the heat were considered dead or moribund, respectively.
(§5) A substance was judged to have good acaricidal activity against the respective tick species when at least 80% of ticks were found dead or moribund at a dose of the substance of g/cm^2. An acaricidal activity of 100% means all ticks were dead or moribund. An acaricidal activity of 0% means none of the ticks was found dead or moribund.

Rhipicephalus sanguineus = test: In vitro contact test with adult hard ticks (Rhipicephalus sanguineus); conditions: read-out: acaricidal activity; for pest or weed control at 0.2 µg/cm2, 0.2 µg/cm2: dose 0.2 μg/cm^2, 48 h; for pest or weed control at 1 µg/cm2, 1 µg/cm2: dose 1 μg/cm^2, 48 h
Protocol: as §2, §3
as §1, with “For the coating of” for “To coat”, “vials,” for “tubes,”, “vial” for “tube”
as §4, §5

| Structure (SMILES) | pest or weed control at 32 ng ([1]; dose 0.032 μg/animal injected) [%] | pest or weed control at 0.00016 mg [1] [%] | pest or weed control at 0.0008 mg [1] [%] | pest or weed control at 0.2 µg/cm2, 0.2 µg/cm2 (Ctenocephalides felis [2]) [%] | pest or weed control at 1 µg/cm2, 1 µg/cm2 (Ctenocephalides felis [2]) [%] | pest or weed control at 0.8 ppm (Ctenocephalides felis [3]) [%] | pest or weed control at 4 ppm (Ctenocephalides felis [3]) [%] | pest or weed control at 0.2 µg/cm2, 0.2 µg/cm2 (Amblyomma americanum; dose 0.2 μg/cm^2, 48 h) [%] | pest or weed control at 1 µg/cm2, 1 µg/cm2 (Amblyomma americanum) [%] | pest or weed control at 0.04 µg/cm2, 0.04 µg/cm2 (Rhipicephalus sanguineus; dose 0.04 μg/cm^2, 48 h) [%] | pest or weed control at 0.2 µg/cm2, 0.2 µg/cm2 (Rhipicephalus sanguineus) [%] | pest or weed control at 1 µg/cm2, 1 µg/cm2 (Rhipicephalus sanguineus) [%] | pest or weed control at 0.16 ppm (Ctenocephalides felis [3]) [%] |
| --- | --- | --- | --- | --- | --- | --- | --- | --- | --- | --- | --- | --- | --- |
| CN(C(=O)c1ccc(C#N)cc1)c1cccc(C(=O)Nc2c(I)cc(C(F)(C(F)(F)F)C(F)(F)F)cc2C(F)(F)F)c1 [Compound 20] | 100 | 100 | 100 | 95 | 95 | 95 | 95 |  |  |  |  |  |  |
| CN(C(=O)c1ccc(C#N)nc1)c1cccc(C(=O)Nc2c(Br)cc(C(F)(C(F)(F)F)C(F)(F)F)cc2C(F)(F)F)c1 [Compound 6] |  |  | 100 | 95 | 95 | 95 | 95 |  |  |  |  |  |  |
| CS(=O)(=O)c1ccc(C(=O)Nc2cccc(C(=O)Nc3c(I)cc(C(F)(C(F)(F)F)C(F)(F)F)cc3C(F)(F)F)c2)c(Cl)c1 [Compound 40] |  |  | 100 |  |  | 95 | 95 |  |  |  |  |  |  |
| O=C(Nc1cccc(C(=O)Nc2c(Br)cc(C(F)(C(F)(F)F)C(F)(F)F)cc2OC(F)(F)F)c1)c1ccc([N+](=O)[O-])cc1 [Compound 11] |  | 100 | 100 | 95 | 95 | 95 | 95 | 90 | 90 | 90 | 90 | 90 | 95 |
| CN(C(=O)c1ccc(C#N)cc1Cl)c1cccc(C(=O)Nc2c(Br)cc(C(F)(C(F)(F)F)C(F)(F)F)cc2C(F)(F)F)c1 [Compound 18] |  |  |  |  |  | 95 | 95 |  |  |  |  |  |  |
| O=C(Nc1cccc(C(=O)Nc2c(Br)cc(C(F)(C(F)(F)F)C(F)(F)F)cc2OC(F)(F)F)c1)c1ccc(C(F)(F)F)cc1 [Compound 1] |  |  | 100 |  |  |  |  |  | 90 |  |  |  |  |
| CN(C(=O)c1ccc(C#N)cc1)c1cc(C(=O)Nc2c(Br)cc(C(F)(C(F)(F)F)C(F)(F)F)cc2C(F)(F)F)ccc1F [Compound 8] |  |  |  | 95 | 95 | 95 | 95 |  |  |  |  |  |  |
| O=C(Nc1c(I)cc(C(F)(C(F)(F)F)C(F)(F)F)cc1C(F)(F)F)c1cccc(NC(=O)c2ccc(Cl)cc2Cl)c1 [Compound 32] |  |  | 100 |  |  |  | 95 |  |  |  |  |  |  |
| CN(C(=O)c1ccc(C#N)cc1F)c1cccc(C(=O)Nc2c(Br)cc(C(F)(C(F)(F)F)C(F)(F)F)cc2C(F)(F)F)c1 [Compound 14] |  | 100 | 100 | 95 | 95 | 95 | 95 |  |  |  | 90 | 90 | 95 |
